Experimental data: patent US8097650B2, “Method of treating a condition associated with phosphorylation of TASK-1” (The Trustees of Columbia University In The City of New York, priority 2005, dated 2012)
Like-named read-outs stand apart in the source and are kept apart here.

How the values were obtained:
[1] = biological target: T1, TASK-1 (Mus musculus, UniProt O35111); experiment: C-PAF-sensitive steady-state current in murine ventricular myocytes (voltage clamp); format: cell-based
T1 construct: endogenous in cells; host or cells: adult mouse ventricular myocytes (C57/B16 background; WT or PAFR KO)
T1 sequence (O35111 whole entry): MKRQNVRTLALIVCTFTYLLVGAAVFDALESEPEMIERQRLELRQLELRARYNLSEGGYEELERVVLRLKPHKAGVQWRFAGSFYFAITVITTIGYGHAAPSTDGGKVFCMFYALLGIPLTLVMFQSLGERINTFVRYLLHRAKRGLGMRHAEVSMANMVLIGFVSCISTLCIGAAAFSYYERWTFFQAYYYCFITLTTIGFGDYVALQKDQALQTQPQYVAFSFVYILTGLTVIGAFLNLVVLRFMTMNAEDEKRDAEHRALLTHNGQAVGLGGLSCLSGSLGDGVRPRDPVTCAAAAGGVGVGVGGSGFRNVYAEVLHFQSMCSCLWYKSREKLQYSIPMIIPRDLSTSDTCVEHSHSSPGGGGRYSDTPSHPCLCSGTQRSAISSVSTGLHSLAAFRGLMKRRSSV
Experimental: (§1) Adult mice, 2-3 months old, were anesthetized with ketamine/xylazine and their hearts were removed according to protocols approved by the Columbia University-IACUC. Experiments were performed on single rod-shaped, quiescent ventricular myocytes dissociated using a standard retrograde collagenase perfusion (Kuznetsov V et al. (1995) Circ Res 76: 40-52) from hearts of mice that were either wild-type (WT), or PAFR knockouts (KO). Both WT and KO mice were bred on a C57/B16 background. The derivation of the KO mice has been described previously (Hoffman, B F et al.(1996) J Cardiovasc Electrophysiol 7:120-133).
(§2) Prior to electrophysiological measurements, cells were placed into the perfusion chamber and superfused at room temperature with Tyrode's buffer (in mM: NaCl, 140; KCl, 5.4; CaCl2 1; MgCl2, Hepes, 5; Glucose, 10; pH 7.4). The whole-cell patch clamp technique was used with pipettes having resistances of 1.5-3 MΩ (intracellular solution, in mM: aspartic acid, 130; KOH, 146; NaCl, 10; CaCl2, 2; EGTA, 5; Hepes, 10; MgATP, 2; pH 7.2). Solutions of C-PAF, the PAFR antagonist, CV-6209 (Biomol) and the PKC inhibitor, bisindolylmaleimide I (BIM I; Calbiochem) were prepared in water and diluted in Tyrode's before use. […] A custom-made fast perfusion device was used to exchange the solution around the cell within 1 s (DiFrancesco et al. (1986) J Physiol 377: 61-88).
(§3) Current and voltage protocols were generated using Clampex 7.0 software applied by means of an Axopatch 200B amplifier and a Digidata 1200 interface (Axon Instruments). During voltage clamp, steady state current traces were acquired at 500 Hz and final filtered at 10 Hz. During current clamp, membrane voltage was acquired at 5 KHz and filtered at 1 KHz. Ramp clamps were conducted by imposing a voltage ramp (14 mV/s) at a 500 Hz acquisition rate with 1 kHz filtering. Data were analyzed using pCLAMP 8.0 (Axon) and Origin 6.0 (Microcal) and are presented as mean±SEM. Steady-state current was determined by computer calculation of average current over a time period of at least 5 s. In all experiments, the n value indicates the number of myocytes studied, and represents pooled data from at least 2 (voltage clamp) or 3 (current clamp) animals. Student's t-test, one-way ANOVA and χ^2 tests were used; a value of p<0.05 was considered statistically significant. Records have been corrected for the junction potential, which was measured to be 9.8 mV.

[2] = biological target: T1, TASK-1; experiment: Methanandamide-sensitive current in murine ventricular myocytes; format: cell-based
Source text: as §2
Current and voltage protocols were generated using Clampex 7.0 software applied by means of an Axopatch 200B amplifier and a Digidata 1200 interface (Axon Instruments). During voltage clamp, steady state current traces were acquired at 500 Hz and final filtered at 10 Hz. […] Data were analyzed using pCLAMP 8.0 (Axon) and Origin 6.0 (Microcal) and are presented as mean±SEM. Steady-state current was determined by computer calculation of average current over a time period of at least 5 s. […] Records have been corrected for the junction potential, which was measured to be 9.8 mV.

[3] = system: quiescent myocytes; experiment: Spontaneous activity in quiescent mouse ventricular myocytes (current clamp); format: cell-based
Experimental: as §1, §2, §3

[4] = system: murine TASK-1; experiment: TASK-1 current expressed in CHO cells (whole-cell ramp clamp); format: cell-based, mouse
Experimental: The TASK-1 clone (provided by Professor Y. Kurachi, Osaka University) was co-transfected in CHO cells with CD8 plasmid using Lipofectamine Plus (Invitrogen) according to the manufacturer's instructions. 48 h later cells were transferred to the electrophysiology chamber and anti-CD8 coated beads (Dynal Biotech) were added to identify CD8 expressing cells. Expressing cells were voltage clamped using a ramp clamp (see below). CHO cells were used in these experiments, in part, because they express endogenous PAFR.
Chinese hamster ovary cells (CHO) were grown in F-12 medium supplemented with 10% fetal bovine serum. Twenty-four hours prior to transfection, cells were seeded into 6 well plates at 80-90% of confluence. Transfections were carried out with the GeneJammer transfection reagent (Stratagene) according to the manufacturer's instructions. Briefly, cells were washed with PBS and their medium replaced with supplemented F-12 medium (900 μl/well). For each well, GeneJammer (6 μl) was incubated with Opti-MEM (90 μl) followed by the addition of DNA (1 μg). This mixture was then added to the wells and 3 h later an additional 2 ml of supplemented F-12 medium was added. After incubating overnight, the cells were washed and their medium replaced.
Cells were either co-transfected with pCMV-TASK1 together with pEGFP-C1 (1 μg total, 3:1) or transfected with […] or T381A-pTIE (1 μg). 48 h after the transfection the cells were checked under the microscope for green fluorescence. Approximately 20% of the cells were positive for EGFP and these were then used for patch-clamp experiments. Due to the culture-to-culture variability in the expression of TASK-1 current, most comparisons were made on matched controls from the same transfection. Summary results were then obtained by pooling data from several different culture preparations.
The myocyte suspension or the coverslip with CHO cells was placed into a perfusion chamber, mounted on the stage of an inverted microscope. Unless otherwise indicated, CHO cells were superfused at room temperature with standard external Tyrode's buffer, containing (mM): NaCl, 140; KCl, 5.4; CaCl2, 1; MgCl2, 1; HEPES, 5; glucose, 10; adjusted to pH 7.4. Recordings were begun after the current reached a stable baseline (usually 3 to 4 min after initial cell rupture). In myocytes, TASK-1 current is small and exists in the presence of numerous larger K^+ currents. In order to increase the inward component of TASK-1 current and to block other potassium currents in myocytes, a modified high K^+ external solution (modified Tyrode's) was used to reduce outward rectification of TASK-1 current. The composition of this solution-was (in mM): NaCl, 100; KCl, 50; CaCl2, 1; MgCl2, 1; HEPES, 5; glucose, 10; tetraethylammonium (TEA), 1; CsCl, 5; adjusted to pH 7.4. Membrane potential and current were measured in the whole cell configuration using borosilicate glass pipettes with a tip resistance between […] and filled with a pipette solution containing (mM): aspartic acid, 130; KOH, 146; NaCl, 10; CaCl2, 2; EGTA, 5; HEPES, 10; MGATP, 2; pH 7.2. The stock solutions of C-PAF and of the PKC inhibitor, bisindolylmaleimide (BIM-I; Calbiochem), were prepared in water and diluted to the final concentrations in Tyrode's or modified Tyrode's, as appropriate. The PKC activator, PMA, was prepared in DMSO and then diluted in Tyrode's. […] Myocytes treated with the peptides were monitored continuously beginning immediately after rupture to detect the occurrence of any arrhythmias during dialysis of the peptide. Application of C-PAF to cells treated with the inhibitor peptide was started after the peptide had been permitted to dialyse into the cell (8-10 min after rupture for CHO or 10-12 min after rupture for myocytes).
The current and the voltage protocols were generated using Clampex 8.0 software applied by means of an Axopatch 200-B and a Digidata 1200 interface (Axon Instruments). […]

[5] = biological target: PKC; conditions: cited from earlier work
[6] = system: adult rat ventricular myocytes; experiment: Methanandamide-induced arrhythmias in cultured adult rat ventricular myocytes; format: cell-based; conditions: paced at 1 Hz
Experimental: FIG. 28. Methanandamide-induced arrhythmias are prevented by over expression of TREK-1 in cultured myocytes. The action potentials of cultured adult rat ventricular myocytes were recorded in current clamp mode during stimulation at 1 Hz.
The action potentials of cultured adult rat ventricular myocytes were recorded in current clamp mode during stimulation at 1 Hz.

[7] = system: murine TASK-1; conditions: typical, from Barbuti et al. 2002; cited from earlier work
[8] = system: murine TASK-1 T381A mutant; experiment: T381A mutant TASK-1 current in CHO cells; format: cell-based, mouse
Experimental: pCMV-TASK1 (cTBAK) consists of a 1.9 kb sequence of murine TASK-1 inserted in pcDNA3.1 (a kind gift of Dr. Yoshihisa Kurachi, University of Osaka, Japan) and has been previously described (Leonoudakis D et al. (1998) J Neurosci 18: 868-877). pEGFP-C1 and pIRES-EGFP were purchased from Clontech. pTIE (TASK1-IRES-EGFP) was constructed by inserting a 1.9 kb EcoR1 fragment from pCMV-TASK1 into EcoR1 digested pIRES-EGFP. Site-directed mutagenesis was performed on pTIE using the Quik-Change kit (Stratagene) following the manufacturer's instructions. […]
Cells were either co-transfected with pCMV-TASK1 together with pEGFP-C1 (1 μg total, 3:1) or transfected with […] or T381A-pTIE (1 μg). 48 h after the transfection the cells were checked under the microscope for green fluorescence. […]
The myocyte suspension or the coverslip with CHO cells was placed into a perfusion chamber, mounted on the stage of an inverted microscope. […] Membrane potential and current were measured in the whole cell configuration using borosilicate glass pipettes with a tip resistance between […] and filled with a pipette solution containing (mM): aspartic acid, 130; KOH, 146; NaCl, 10; CaCl2, 2; EGTA, 5; HEPES, 10; MGATP, 2; pH 7.2. […] Myocytes treated with the peptides were monitored continuously beginning immediately after rupture to detect the occurrence of any arrhythmias during dialysis of the peptide. […]

[9] = system: human TASK-1 T383A; experiment: Human TASK-1 T383A mutant current in CHO cells; format: cell-based; conditions: Tyrode's pH 8, ramp
Source text: FIGS. 24A-24B. Mutations in human TASK-1 remove the sensitivity to C-PAF and PMA when the channel is expressed in CHO cells. Two human TASK-1 (hTASK-1) mutants in which either serine-358 was converted to alanine (S358A) or threonine-383 was converted to alanine (T383A) were generated and separately expressed in CHO cells. The C-PAF-sensitive (24A) and PMA-sensitive currents (24B) were obtained in Tyrode's at pH 8 using a ramp protocol in […] configuration, essentially as described in FIG. 15. […] However, the S358A channel was not inhibited in the presence of C-PAF (24A) and the T383A channel was not inhibited by PMA (24B).

CN(C)CCCn1cc(C2=C(c3c[nH]c4ccccc34)C(=O)NC2=O)c2ccccc21 [BIM I, bisindolylmaleimide I]
effect on C-PAF-sensitive current ([1]; BIM I 100 nM, −10 mV): completely blocked | effect of PKC inhibitor or inactive analogue on C-PAF-sensitive current ([1]; BIM I 40 and 100 nM, BIM V, −10 mV): blocked in a dose-dependent manner | effect on methanandamide-sensitive current ([2]; BIM I 100 nM, WT myocytes): significantly reduced | quiescent WT cells that failed to respond to C-PAF ([3]; BIM I 100 nM, C-PAF 185 nM): 6 of 8 | C-PAF-sensitive current in the presence of PKC inhibitor ([4]; BIM-I 100 nM, C-PAF 185 nM): no measurable C-PAF-sensitive current | Ki [5]: 14 nM

CCCCC/C=C\C/C=C\C/C=C\C/C=C\CCCC(=O)N[C@H](C)CO [methanandamide]
effect on C-PAF-sensitive current ([1]; held at −10 mV, C-PAF 185 nM, Ba2+ 3 mM, Zn2+ 3 mM, lipids and ATFK 10 μM): inhibited | methanandamide-sensitive current with PAFR blocked or absent ([2]; methanandamide 10 μM, CV-6209 100 nM or PAFR KO myocytes): fully effective | quiescent WT myocytes with spontaneous action potentials ([3]; methanandamide 10 μM): 7 of 12 | arrhythmias in control cells expressing only GFP [6]: typical arrythmias were observed | arrhythmias in myocytes overexpressing GFP and TREK-1 [6]: unable to induce arrhythmias | inhibition of TASK-1 current [7]: approximately 60%

CCCCCCCCCCCCCC(=O)O[C@@H]1[C@@H](C)[C@@]2(O)[C@@H](C=C(CO)C[C@]3(O)C(=O)C(C)=C[C@@H]23)[C@@H]2C(C)(C)[C@]12OC(C)=O [PMA, phorbol 12-myristate 13-acetate]
TASK-1 current density in the presence of drug ([4]; +30 mV, C-PAF 185 nM or PMA 100 nM, no peptide): 59.2±10.1 pA/pF | inhibition of TASK-1 current ([4]; +30 mV, PMA 100 nM (n=17), C-PAF 185 nM (n=20)): 19.8±2.7% | TASK-1 current density after drug ([4]; PKCε-inhibitor peptide 100 nM in pipette, C-PAF 185 nM or PMA 100 nM): 41.2±12.3 pA/pF | TASK-1 current density after drug ([4]; scrambled peptide 100 nM in pipette, PMA 100 nM): 36.6±6.2 pA/pF | sensitivity of mutant channel to PMA [8]: nor is it sensitive to PMA treatment | inhibition of T383A channel [9]: not inhibited
